pKi: −log10 of the molar value.
How the values were obtained:
Format in all cases: biochemical
activated JNK3 = molecular target: T1, activated JNK3 (Homo sapiens, UniProt P53779); assay: JNK inhibition assay (spectrophotometric coupled-enzyme assay); details: 10 nM activated JNK3, 10 μM ATP; read-out: Activity in the JNK3 Inhibition Assay (Ki rating A-C)
T1 construct: One such construct encodes amino acid residues Ser40-Glu402 of JNK3α1 and is preceded by Met and Gly residues; Met-Gly (initiator methionine and added glycine) (N); made in house; host or cells: E. coli BL21 (DE3)
Method in brief: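 Activated (doubly phosphorylated, MKK7(DD)-activated) human JNK3, 10 nM, preincubated 10 min at 30 °C with inhibitor in 0.1 M HEPES pH 7.5, 10 mM MgCl2, 200 μM EGF receptor peptide, PK/LDH-coupled. Started with 10 μM ATP; A340 decrease followed at 30 °C. Ki from competitive inhibition model fit.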

[1] = molecular target: T2, Lck kinase purified from bovine thymus (Bos taurus, UniProt Q3ZCM0); assay: Lck inhibition assay (33P incorporation into poly Glu-Tyr); details: 10 μM ATP; read-out: Activity in the Lck Inhibition Assay (Ki rating A-C)
T2 construct: Lck kinase purified from bovine thymus; purchased Upstate Biotechnology 14-106; host or cells: bovine thymus (tissue-purified)
Method in brief: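 Filter-binding radiometric assay of 33P transfer from ATP to poly Glu-Tyr (4:1, 5 mg/ml) by bovine thymus Lck in 0.05 M HEPES pH 7.6, 10 mM MgCl2, 2 mM DTT, 0.25 mg/ml BSA, 10 μM ATP. After 10 min at 30° C, reaction started with 33P-ATP, run 20 min, quenched with TCA; filter-bound radioactivity counted by scintillation.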

[2] = molecular target: Glycogen Synthase Kinase 3 (GSK-3) (Homo sapiens, UniProt P49841); assay: GSK-3 inhibition assay (standard coupled enzyme assay); details: 60 nM GSK-3, 10 μM ATP; read-out: GSK-3 Inhibitory Activity (Ki rating A-C)
Method in brief: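 Pyruvate kinase/lactate dehydrogenase-coupled assay with 60 nM GSK-3 and 300 μM HSSPHQp-SEDEEE peptide in HEPES pH 7.5; compound preincubated 5 min at 30 °C, reaction started with 10 μM ATP. NADH absorbance at 340 nm tracked over 5 min; IC50 from rates versus inhibitor concentration.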

Glycogen Synthase Kinase 3 (GSK-3), sequence (P49841 whole entry): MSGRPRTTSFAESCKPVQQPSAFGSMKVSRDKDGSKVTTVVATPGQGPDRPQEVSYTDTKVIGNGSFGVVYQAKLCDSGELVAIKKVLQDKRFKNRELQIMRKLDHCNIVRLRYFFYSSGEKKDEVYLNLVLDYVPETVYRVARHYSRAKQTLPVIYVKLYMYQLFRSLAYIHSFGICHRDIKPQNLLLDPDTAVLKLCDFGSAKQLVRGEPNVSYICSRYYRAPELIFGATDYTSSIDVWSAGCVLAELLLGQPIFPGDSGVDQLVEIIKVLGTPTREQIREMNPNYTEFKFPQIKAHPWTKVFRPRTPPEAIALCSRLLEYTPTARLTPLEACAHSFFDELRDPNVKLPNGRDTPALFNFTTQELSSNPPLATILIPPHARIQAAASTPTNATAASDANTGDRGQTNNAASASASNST
T1 sequence (P53779 40-402): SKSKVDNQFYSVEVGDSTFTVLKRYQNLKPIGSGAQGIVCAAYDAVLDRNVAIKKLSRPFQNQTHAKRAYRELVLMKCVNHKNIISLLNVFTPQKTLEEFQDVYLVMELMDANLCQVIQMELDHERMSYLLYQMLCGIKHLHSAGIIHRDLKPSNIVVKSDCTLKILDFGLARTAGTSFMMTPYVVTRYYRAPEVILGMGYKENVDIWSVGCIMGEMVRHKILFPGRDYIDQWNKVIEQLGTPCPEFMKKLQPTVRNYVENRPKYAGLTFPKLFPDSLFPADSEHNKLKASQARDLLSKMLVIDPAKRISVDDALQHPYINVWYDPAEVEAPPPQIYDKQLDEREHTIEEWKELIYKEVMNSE
T2 sequence (Q3ZCM0 1-509): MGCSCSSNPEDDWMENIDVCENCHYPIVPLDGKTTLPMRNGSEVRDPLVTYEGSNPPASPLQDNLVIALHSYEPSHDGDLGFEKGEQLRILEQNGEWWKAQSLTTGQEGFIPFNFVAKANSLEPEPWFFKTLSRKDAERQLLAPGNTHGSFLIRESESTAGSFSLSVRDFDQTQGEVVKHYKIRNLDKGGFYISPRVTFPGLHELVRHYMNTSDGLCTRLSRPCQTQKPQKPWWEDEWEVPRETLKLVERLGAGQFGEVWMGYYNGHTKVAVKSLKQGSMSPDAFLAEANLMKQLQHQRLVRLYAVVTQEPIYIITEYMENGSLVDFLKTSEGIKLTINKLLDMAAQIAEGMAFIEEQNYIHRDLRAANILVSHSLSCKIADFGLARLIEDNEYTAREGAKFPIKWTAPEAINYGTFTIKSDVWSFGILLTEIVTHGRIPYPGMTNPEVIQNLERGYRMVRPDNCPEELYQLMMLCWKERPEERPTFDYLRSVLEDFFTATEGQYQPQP

Row | pKi (activated JNK3) | pKi [1] | pKi [2] | SMILES
1 | > 7.00 | < 6.00 | 6.00 to 7.00 | COc1cc(-c2ccnc(Nc3ccc(N)cc3)n2)cc(OC)c1OC [Compound I-34]
2 | > 7.00 | 6.00 to 7.00 | 6.00 to 7.00 | COc1cc(-c2ccnc(Nc3cccc(N)c3)n2)cc(OC)c1OC [Compound I-57]

From patent US6949544B2, “Inhibitors of c-Jun N-terminal kinases (JNK) and other protein kinases” (Vertex Pharmaceuticals Incorporated, priority 2001, dated 2005)
